# Laboratory results reported in PubChem BioAssay (NCI).
#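 In this assay, cells in 96-well plates receive the compound at five concentrations for 48 hours. Endpoints are linearly interpolated between the surrounding concentrations. Abbreviation: GI50, concentration required for 50% inhibition of growth. TGI denotes the concentration required for complete inhibition of growth.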
# Tests used:
# Experiment in all cases: growth of human tumour cells (NCI), 48 h
# [1] = test system: 786-0 renal
# [2] = test system: A498 renal
# [3] = test system: A549 NSCLC
# [4] = test system: ACHN renal
# [5] = test system: BT-549 breast
# [6] = test system: CAKI-1 renal
# [7] = test system: CCRF-CEM leukemia
# [8] = test system: COLO 205 colon
# [9] = test system: DU-145 prostate
# [10] = test system: EKVX NSCLC
# [11] = test system: HCC-2998 colon
# [12] = test system: HCT-116 colon
# [13] = test system: HCT-15 colon
# [14] = test system: HL-60(TB) leukemia
# [15] = test system: HOP-62 NSCLC
# [16] = test system: HOP-92 NSCLC
# [17] = test system: HS 578T breast
# [18] = test system: HT29 colon
# [19] = test system: IGROV1 ovarian
# [20] = test system: K-562 leukemia
# [21] = test system: KM12 colon
# [22] = test system: LOX IMVI melanoma
# [23] = test system: M14 melanoma
# [24] = test system: MALME-3M melanoma
# [25] = test system: MCF7 breast
# [26] = test system: MDA-MB-231 breast
# [27] = test system: MDA-MB-435
# [28] = test system: MDA-MB-468 breast
# [29] = test system: MOLT-4 leukemia
# [30] = test system: NCI-H226 lung
# [31] = test system: NCI-H23 lung
# [32] = test system: NCI-H460 lung
# [33] = test system: NCI-H522 lung
# [34] = test system: NCI/ADR-RES ovarian
# [35] = test system: OVCAR-3 ovarian
# [36] = test system: OVCAR-4 ovarian
# [37] = test system: OVCAR-5 ovarian
# [38] = test system: OVCAR-8 ovarian
# [39] = test system: PC-3 prostate
# [40] = test system: RPMI-8226 leukemia
# [41] = test system: RXF 393 renal
# [42] = test system: SF-268 CNS
# [43] = test system: SF-295 CNS
# [44] = test system: SF-539 CNS
# [45] = test system: SK-MEL-2 melanoma
# [46] = test system: SK-MEL-28 melanoma
# [47] = test system: SK-MEL-5 melanoma
# [48] = test system: SK-OV-3 ovarian
# [49] = test system: SN12C renal
# [50] = test system: SNB-19 CNS
# [51] = test system: SNB-75 CNS
# [52] = test system: SR leukemia
# [53] = test system: SW-620 colon
# [54] = test system: T-47D breast
# [55] = test system: TK-10 renal
# [56] = test system: U251 CNS
# [57] = test system: UACC-257 melanoma
# [58] = test system: UACC-62 melanoma
# [59] = test system: UO-31 renal
compound,measurement,setting,value
CC(C)(C)OC(=O)N1C/C(=C\c2ccc(F)cc2)C(=O)/C(=C/c2ccc(F)cc2)C1,GI50,[1],1.94 µM
same,TGI,[1],3.98 µM
same,GI50,[2],17.1 µM
same,TGI,[2],34.6 µM
same,GI50,[3],6.72 µM
same,TGI,[3],29 µM
same,GI50,[4],1.87 µM
same,TGI,[4],3.68 µM
same,GI50,[5],1.82 µM
same,TGI,[5],3.73 µM
same,GI50,[6],2.07 µM
same,TGI,[6],5.5 µM
same,GI50,[7],1.81 µM
same,TGI,[7],> 100 µM
same,GI50,[8],3.49 µM
same,TGI,[8],12.1 µM
same,GI50,[9],3.5 µM
same,TGI,[9],13.7 µM
same,GI50,[10],2.56 µM
same,TGI,[10],6.61 µM
same,GI50,[11],1.84 µM
same,TGI,[11],3.26 µM
same,GI50,[12],0.355 µM
same,TGI,[12],1.28 µM
same,GI50,[13],1.5 µM
same,TGI,[13],3.22 µM
same,GI50,[14],2.88 µM
same,TGI,[14],> 100 µM
same,GI50,[15],13.1 µM
same,TGI,[15],26.9 µM
same,GI50,[16],2.51 µM
same,TGI,[16],9.66 µM
same,GI50,[17],2.26 µM
same,TGI,[17],7.68 µM
same,GI50,[18],1.91 µM
same,TGI,[18],3.72 µM
same,GI50,[19],2.14 µM
same,TGI,[19],4.82 µM
same,GI50,[20],0.643 µM
same,TGI,[20],> 100 µM
same,GI50,[21],1.89 µM
same,TGI,[21],4.23 µM
same,GI50,[22],1.28 µM
same,TGI,[22],2.55 µM
same,GI50,[23],2.02 µM
same,TGI,[23],4.5 µM
same,GI50,[24],2.24 µM
same,TGI,[24],5.15 µM
same,GI50,[25],0.991 µM
same,TGI,[25],2.46 µM
same,GI50,[26],2.16 µM
same,TGI,[26],5.27 µM
same,GI50,[27],1.73 µM
same,TGI,[27],3.32 µM
same,GI50,[28],1.85 µM
same,TGI,[28],3.75 µM
same,GI50,[29],3.5 µM
same,TGI,[29],> 100 µM
same,GI50,[30],3.64 µM
same,TGI,[30],14.8 µM
same,GI50,[31],2.17 µM
same,TGI,[31],5.3 µM
same,GI50,[32],3.22 µM
same,TGI,[32],10.7 µM
same,GI50,[33],1.63 µM
same,TGI,[33],3.17 µM
same,GI50,[34],1.89 µM
same,TGI,[34],4.39 µM
same,GI50,[35],1.99 µM
same,TGI,[35],4.46 µM
same,GI50,[36],3.22 µM
same,TGI,[36],19.5 µM
same,GI50,[37],2.18 µM
same,TGI,[37],5.59 µM
same,GI50,[38],1.83 µM
same,TGI,[38],3.78 µM
same,GI50,[39],1.9 µM
same,TGI,[39],6.41 µM
same,GI50,[40],0.379 µM
same,TGI,[40],2.64 µM
same,GI50,[41],2.92 µM
same,TGI,[41],8.29 µM
same,GI50,[42],3.02 µM
same,TGI,[42],11.7 µM
same,GI50,[43],1.97 µM
same,TGI,[43],3.98 µM
same,GI50,[44],1.94 µM
same,TGI,[44],3.81 µM
same,GI50,[45],2.65 µM
same,TGI,[45],9.67 µM
same,GI50,[46],2.17 µM
same,TGI,[46],5.51 µM
same,GI50,[47],1.71 µM
same,TGI,[47],3.51 µM
same,GI50,[48],8.24 µM
same,TGI,[48],21.9 µM
same,GI50,[49],1.82 µM
same,TGI,[49],4.12 µM
same,GI50,[50],2.65 µM
same,TGI,[50],8.72 µM
same,GI50,[51],2.53 µM
same,TGI,[51],19.9 µM
same,GI50,[52],0.335 µM
same,TGI,[52],> 100 µM
same,GI50,[53],0.455 µM
same,TGI,[53],1.7 µM
same,GI50,[54],3.18 µM
same,TGI,[54],15.9 µM
same,GI50,[55],4.01 µM
same,TGI,[55],16.4 µM
same,GI50,[56],1.44 µM
same,TGI,[56],2.96 µM
same,GI50,[57],2.06 µM
same,TGI,[57],5.19 µM
same,GI50,[58],1.78 µM
same,TGI,[58],4.17 µM
same,GI50,[59],1.77 µM
same,TGI,[59],3.94 µM
